According to the OligoGym collection:
HELM strings list units from the 5' end as sugar, base in round brackets, then linkage (d deoxyribose, r ribose, m 2'-O-methyl, p phosphodiester). Strings are as the collection lists them; they lack the last nucleoside at the 3' end of the tested compound. [moe] = 2'-O-(2-methoxyethyl) (MOE); [sp] = phosphorothioate linkage; [m5C] = 5-methylcytosine

target: UBE3A-ATS; assay: mouse, dose not given; conditions: ASO

Row | Substance | 3 h FOB score [score 0-7]
1 | RNA1{[moe](G)[sp].[moe](G)p.[moe](T)p.[moe]([m5C])p.[moe](A)[sp].d(T)[sp].d([m5C])[sp].d(T)[sp].d([m5C])[sp].d(G)[sp].d(G)[sp].d(G)[sp].d(T)[sp].[moe](A)p.[moe](T)p.[moe](A)[sp].[moe](T)}$$$$ (last 3' nucleoside missing) | 6
2 | RNA1{[moe](G)[sp].[moe](G)p.[moe](T)p.[moe]([m5C])p.[moe](A)p.[moe](A)p.d([m5C])[sp].d([m5C])[sp].d(A)[sp].d(A)[sp].d(T)[sp].d(T)[sp].d(T)[sp].d(G)[sp].d([m5C])[sp].d(T)[sp].[moe](A)p.[moe](T)[sp].[moe](T)}$$$$ (last 3' nucleoside missing) | 5
3 | RNA1{[moe](G)[sp].[moe](G)p.[moe](T)p.[moe]([m5C])p.[moe](A)p.[moe](T)[sp].d([m5C])[sp].d(T)[sp].d([m5C])[sp].d(G)[sp].d(G)[sp].d(G)[sp].d(T)[sp].d(A)[sp].[moe](T)p.[moe](A)[sp].[moe](T)}$$$$ (last 3' nucleoside missing) | 6
4 | RNA1{[moe](G)[sp].[moe](G)p.[moe](T)p.[moe]([m5C])p.[moe](A)p.[moe](T)p.d([m5C])[sp].d(T)[sp].d([m5C])[sp].d(G)[sp].d(G)[sp].d(G)[sp].d(T)[sp].d(A)[sp].d(T)[sp].d(A)[sp].[moe](T)p.[moe](A)[sp].[moe](A)}$$$$ (last 3' nucleoside missing) | 6
5 | RNA1{[moe](G)[sp].[moe](G)p.[moe](T)p.[moe]([m5C])p.[moe](A)p.d(A)[sp].d([m5C])[sp].d([m5C])[sp].d(A)[sp].d(A)[sp].d(T)[sp].d(T)[sp].d(T)[sp].d(G)[sp].d([m5C])[sp].[moe](T)p.[moe](A)p.[moe](T)[sp].[moe](T)}$$$$ (last 3' nucleoside missing) | 3.8
6 | RNA1{[moe](G)[sp].[moe](G)p.[moe](T)p.[moe]([m5C])p.[moe](A)p.d(G)[sp].d(A)[sp].d(T)[sp].d(T)[sp].d([m5C])[sp].d([m5C])[sp].d(T)[sp].d(A)[sp].d(A)[sp].d(A)[sp].[moe](T)p.[moe](A)p.[moe]([m5C])[sp].[moe](G)}$$$$ (last 3' nucleoside missing) | 1
7 | RNA1{[moe](G)[sp].[moe](G)p.[moe](T)p.[moe]([m5C])p.[moe](A)p.d(T)[sp].d([m5C])[sp].d(T)[sp].d([m5C])[sp].d(G)[sp].d(G)[sp].d(G)[sp].d(T)[sp].d(A)[sp].d(T)[sp].[moe](A)p.[moe](T)p.[moe](A)[sp].[moe](A)}$$$$ (last 3' nucleoside missing) | 4.2
8 | RNA1{[moe](G)[sp].[moe](G)p.[moe](T)p.[moe]([m5C])p.[moe]([m5C])p.d(A)[sp].d(T)[sp].d(A)[sp].d(G)[sp].d(A)[sp].d(T)[sp].d(G)[sp].d(T)[sp].d([m5C])[sp].d(A)[sp].[moe](G)p.[moe](T)p.[moe](T)[sp].[moe](A)}$$$$ (last 3' nucleoside missing) | 5.5
9 | RNA1{[moe](G)[sp].[moe](G)p.[moe](T)p.[moe]([m5C])p.d(A)[sp].d(A)[sp].d([m5C])[sp].d([m5C])[sp].d(A)[sp].d(A)[sp].d(T)[sp].d(T)[sp].d(T)[sp].d(G)[sp].[moe]([m5C])p.[moe](T)p.[moe](A)p.[moe](T)[sp].[moe](T)}$$$$ (last 3' nucleoside missing) | 4.7
10 | RNA1{[moe](G)[sp].[moe](G)p.[moe](T)p.[moe]([m5C])p.d(A)[sp].d(T)[sp].d([m5C])[sp].d(T)[sp].d([m5C])[sp].d(G)[sp].d(G)[sp].d(G)[sp].d(T)[sp].d(A)[sp].[moe](T)p.[moe](A)p.[moe](T)p.[moe](A)[sp].[moe](A)}$$$$ (last 3' nucleoside missing) | 5.5
11 | RNA1{[moe](G)[sp].[moe](G)p.[moe]([m5C])p.[moe](A)p.[moe](A)p.d(G)[sp].d([m5C])[sp].d(A)[sp].d(A)[sp].d([m5C])[sp].d(T)[sp].d(A)[sp].d(T)[sp].d(G)[sp].d(G)[sp].[moe](G)p.[moe](T)p.[moe](G)[sp].[moe](G)}$$$$ (last 3' nucleoside missing) | 6.2
12 | RNA1{[moe](G)[sp].[moe](G)p.[moe]([m5C])p.[moe](A)p.[moe](A)p.d(T)[sp].d(G)[sp].d(G)[sp].d(A)[sp].d([m5C])[sp].d(T)[sp].d(T)[sp].d(A)[sp].d(G)[sp].d(T)[sp].[moe](A)p.[moe]([m5C])p.[moe](A)[sp].[moe]([m5C])}$$$$ (last 3' nucleoside missing) | 2.3
13 | RNA1{[moe](G)[sp].[moe](G)p.[moe]([m5C])p.[moe](A)p.[moe](G)p.d([m5C])[sp].d(T)[sp].d([m5C])[sp].d([m5C])[sp].d(T)[sp].d(G)[sp].d(A)[sp].d([m5C])[sp].d(A)[sp].d(A)[sp].[moe](A)p.[moe](T)p.[moe](T)[sp].[moe](A)}$$$$ (last 3' nucleoside missing) | 4
14 | RNA1{[moe](G)[sp].[moe](G)p.[moe]([m5C])p.[moe](T)p.[moe](T)p.d(T)[sp].d(A)[sp].d(T)[sp].d(A)[sp].d([m5C])[sp].d(T)[sp].d(T)[sp].d(T)[sp].d(A)[sp].d([m5C])[sp].[moe]([m5C])p.[moe]([m5C])p.[moe](A)[sp].[moe](A)}$$$$ (last 3' nucleoside missing) | 1
15 | RNA1{[moe](G)[sp].[moe](G)p.[moe]([m5C])p.[moe]([m5C])p.[moe](T)p.d(G)[sp].d(A)[sp].d([m5C])[sp].d(T)[sp].d(A)[sp].d(G)[sp].d(G)[sp].d([m5C])[sp].d(A)[sp].d(T)[sp].[moe](T)p.[moe](G)p.[moe](A)[sp].[moe](A)}$$$$ (last 3' nucleoside missing) | 3
16 | RNA1{[moe](G)[sp].[moe](T)p.[moe](A)p.[moe](A)p.[moe](G)p.d(A)[sp].d(G)[sp].d(T)[sp].d(T)[sp].d(A)[sp].d(G)[sp].d([m5C])[sp].d(T)[sp].d(A)[sp].d(T)[sp].[moe](T)p.[moe]([m5C])p.[moe]([m5C])[sp].[moe]([m5C])}$$$$ (last 3' nucleoside missing) | 4
17 | RNA1{[moe](G)[sp].[moe](T)p.[moe](A)p.[moe](A)p.[moe](G)p.d(T)[sp].d(A)[sp].d(T)[sp].d(A)[sp].d(G)[sp].d(A)[sp].d(T)[sp].d(G)[sp].d([m5C])[sp].d([m5C])[sp].[moe](T)p.[moe]([m5C])p.[moe](T)[sp].[moe]([m5C])}$$$$ (last 3' nucleoside missing) | 3.8
18 | RNA1{[moe](G)[sp].[moe](T)p.[moe](A)p.[moe](A)p.[moe](T)p.d(G)[sp].d(A)[sp].d(T)[sp].d(T)[sp].d(T)[sp].d(G)[sp].d([m5C])[sp].d([m5C])[sp].d([m5C])[sp].d(T)[sp].[moe]([m5C])p.[moe]([m5C])p.[moe](T)[sp].[moe](A)}$$$$ (last 3' nucleoside missing) | 6
19 | RNA1{[moe](G)[sp].[moe](T)p.[moe](A)p.[moe](G)p.[moe](A)p.d(T)[sp].d(A)[sp].d(A)[sp].d([m5C])[sp].d(T)[sp].d(T)[sp].d(T)[sp].d(A)[sp].d([m5C])[sp].d([m5C])[sp].[moe](T)p.[moe](T)p.[moe](G)[sp].[moe](A)}$$$$ (last 3' nucleoside missing) | 0
20 | RNA1{[moe](G)[sp].[moe](T)p.[moe](A)p.[moe](G)p.[moe](G)p.d(A)[sp].d(G)[sp].d(A)[sp].d(T)[sp].d(A)[sp].d(G)[sp].d(G)[sp].d([m5C])[sp].d(A)[sp].d(G)[sp].[moe](T)p.[moe](G)p.[moe]([m5C])[sp].[moe](A)}$$$$ (last 3' nucleoside missing) | 5
21 | RNA1{[moe](G)[sp].[moe](T)p.[moe](A)p.[moe](G)p.[moe]([m5C])p.d(T)[sp].d(A)[sp].d(T)[sp].d(A)[sp].d(G)[sp].d(G)[sp].d(T)[sp].d(G)[sp].d(T)[sp].d([m5C])[sp].[moe](A)p.[moe]([m5C])p.[moe](A)[sp].[moe](T)}$$$$ (last 3' nucleoside missing) | 6.2
22 | RNA1{[moe](G)[sp].[moe](T)p.[moe](A)p.[moe](T)p.[moe](A)p.d(T)[sp].d(A)[sp].d([m5C])[sp].d(T)[sp].d([m5C])[sp].d([m5C])[sp].d(A)[sp].d(G)[sp].d(G)[sp].d(T)[sp].[moe](T)p.[moe](G)p.[moe](T)[sp].[moe](G)}$$$$ (last 3' nucleoside missing) | 5.2
23 | RNA1{[moe](G)[sp].[moe](T)p.[moe](A)p.[moe](T)p.[moe](A)p.d(T)[sp].d(T)[sp].d(A)[sp].d(G)[sp].d(T)[sp].d([m5C])[sp].d(T)[sp].d(A)[sp].d(A)[sp].d(G)[sp].[moe](G)p.[moe]([m5C])p.[moe](A)[sp].[moe](G)}$$$$ (last 3' nucleoside missing) | 3.7
24 | RNA1{[moe](G)[sp].[moe](T)p.[moe](A)p.[moe](T)p.[moe](A)p.d(T)[sp].d(T)[sp].d(G)[sp].d(T)[sp].d(A)[sp].d(G)[sp].d([m5C])[sp].d(T)[sp].d(T)[sp].d(T)[sp].[moe](T)p.[moe]([m5C])p.[moe](T)[sp].[moe](A)}$$$$ (last 3' nucleoside missing) | 6.2
25 | RNA1{[moe](G)[sp].[moe](T)p.[moe](A)p.[moe](T)p.[moe](G)p.d(G)[sp].d(T)[sp].d(A)[sp].d(T)[sp].d([m5C])[sp].d(T)[sp].d(T)[sp].d(G)[sp].d([m5C])[sp].d(A)[sp].[moe](G)p.[moe](T)p.[moe](A)[sp].[moe](G)}$$$$ (last 3' nucleoside missing) | 5.2
26 | RNA1{[moe](G)[sp].[moe](T)p.[moe](A)p.[moe](T)p.[moe](T)p.d(G)[sp].d(A)[sp].d([m5C])[sp].d(A)[sp].d([m5C])[sp].d([m5C])[sp].d(T)[sp].d([m5C])[sp].d([m5C])[sp].d(A)[sp].[moe](A)p.[moe]([m5C])p.[moe](T)[sp].[moe](G)}$$$$ (last 3' nucleoside missing) | 2
27 | RNA1{[moe](G)[sp].[moe](T)p.[moe](A)p.[moe](T)p.[moe]([m5C])p.d(A)[sp].d(G)[sp].d(G)[sp].d([m5C])[sp].d(A)[sp].d(A)[sp].d([m5C])[sp].d(A)[sp].d(G)[sp].d(A)[sp].[moe](A)p.[moe](T)p.[moe]([m5C])[sp].[moe](T)}$$$$ (last 3' nucleoside missing) | 4.3
